Experiments:
[1] = molecular target: Endoplasmin (Canis lupus familiaris, UniProt P41148); test: Binding affinity to GST-tagged dog GRP94 (69 to 337 residues) expressed in Escherichia coli BL21 (DE3) assessed as dissociation constant at 0.37 to 10 uM measured by BLI assay
[2] = molecular target: Heat shock protein HSP 90-alpha (Homo sapiens, UniProt P07900); test: Binding affinity to His-tagged human N-terminal HSP90alpha (1 to 236 residues) expressed in Escherichia coli BL21 (DE3) assessed as dissociation constant at 1.1 to 30 uM measured by BLI assay

Chain of Endoplasmin (P41148 whole entry, the tested form may be a part): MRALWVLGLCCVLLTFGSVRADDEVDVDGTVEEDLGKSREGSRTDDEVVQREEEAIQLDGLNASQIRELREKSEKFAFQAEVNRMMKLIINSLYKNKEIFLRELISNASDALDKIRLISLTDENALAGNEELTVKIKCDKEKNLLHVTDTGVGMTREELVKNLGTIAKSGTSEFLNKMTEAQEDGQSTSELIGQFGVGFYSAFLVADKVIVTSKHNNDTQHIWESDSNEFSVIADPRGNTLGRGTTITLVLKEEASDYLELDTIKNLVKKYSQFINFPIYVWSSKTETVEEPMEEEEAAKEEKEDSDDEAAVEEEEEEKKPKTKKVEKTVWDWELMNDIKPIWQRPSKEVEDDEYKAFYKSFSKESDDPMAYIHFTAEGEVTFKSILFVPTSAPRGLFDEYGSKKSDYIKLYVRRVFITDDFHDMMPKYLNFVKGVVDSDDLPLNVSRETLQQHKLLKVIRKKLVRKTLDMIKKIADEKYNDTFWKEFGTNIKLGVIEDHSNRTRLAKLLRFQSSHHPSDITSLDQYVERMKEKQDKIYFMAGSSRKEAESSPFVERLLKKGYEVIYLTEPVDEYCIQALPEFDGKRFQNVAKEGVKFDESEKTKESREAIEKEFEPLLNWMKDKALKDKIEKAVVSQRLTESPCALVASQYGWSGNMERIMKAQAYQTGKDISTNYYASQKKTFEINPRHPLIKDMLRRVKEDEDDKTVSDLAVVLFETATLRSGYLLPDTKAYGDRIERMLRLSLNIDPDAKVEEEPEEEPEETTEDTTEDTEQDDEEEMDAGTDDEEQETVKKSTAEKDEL

CCCCC#Cc1ccc(N[C@H]2CC[C@H](O)CC2)c(C(N)=O)c1
koff [1]: 0.0284 s⁻¹
koff [2]: 0.114 s⁻¹
